Laboratory results as given in publication PMC7816853, “Overexpression of the chloroplastic 2-oxoglutarate/malate transporter disturbs carbon and nitrogen homeostasis in rice” (Journal of Experimental Botany, 2020).

Molecular target: T1, ZmOMT1 (Zea mays, UniProt Q768R5)
T1 construct: gene ZmpOMT1; full-length CDS with C-terminal AcV5 tag kept; expressed in transgenic rice (Oryza sativa indica IR64) leaf mesophyll; total leaf membrane protein reconstituted into liposomes; calculated ~60 kDa, 40 kDa on blot
T1 sequence (Q768R5 81-578): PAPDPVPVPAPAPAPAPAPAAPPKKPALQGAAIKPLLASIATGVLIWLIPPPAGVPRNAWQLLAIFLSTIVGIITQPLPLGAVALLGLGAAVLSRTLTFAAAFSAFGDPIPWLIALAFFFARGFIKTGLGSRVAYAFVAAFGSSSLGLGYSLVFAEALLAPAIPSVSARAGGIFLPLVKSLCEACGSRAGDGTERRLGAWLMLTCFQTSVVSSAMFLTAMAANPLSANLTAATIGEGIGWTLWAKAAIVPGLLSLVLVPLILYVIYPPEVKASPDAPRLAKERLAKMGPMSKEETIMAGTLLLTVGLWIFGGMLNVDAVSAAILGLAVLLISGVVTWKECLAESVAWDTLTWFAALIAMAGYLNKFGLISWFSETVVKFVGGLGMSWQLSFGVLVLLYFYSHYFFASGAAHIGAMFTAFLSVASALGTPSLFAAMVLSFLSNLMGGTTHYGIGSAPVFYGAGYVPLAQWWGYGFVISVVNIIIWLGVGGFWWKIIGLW
Assay: […]malate uptake into proteoliposomes, malate/malate counterexchange
Type: biochemical
Conditions: pH 7.5; 30 mM malate preloaded inside; 0.3 mM external [14C]malate; total leaf membrane protein of transgenic rice versus wild type (native rice transporters present); labelled compound

For O=C(O)C[C@H](O)C(=O)O [malate], the “[14C]malate uptake into proteoliposomes, malate/malate counterexchange” value was “significantly higher malate–malate counterexchange activity in liposomes reconstituted with membrane proteins from overexpression lines”.
